Measured values from patent US6967201B1, “Benzofurylpiperazines and benzofurylhomopiperazines: serotonin agonists” (Eli Lilly and Company, priority 1999, dated 2005).

melting point	Compound
191 °C (dec.)	C[C@H]1CN(c2ccc(F)c3ccoc23)CCN1.O=C(O)C(=O)O
162 to 165 °C	CC1(C)CNCCN1c1cc(F)cc2ccoc12.O=C(O)/C=C/C(=O)O
192 °C (dec.)	C[C@@H]1CN(c2ccc(F)c3ccoc23)CCN1.O=C(O)C(=O)O
